What was measured:
[1] = molecular target: T1, Adenosine receptor A1 (Cavia porcellus, UniProt P47745); assay: Binding affinity against adenosine A1 receptor using [3H]CPX in guinea pig DDT membrane; 5497+/-180
T1 sequence (P47745 whole entry): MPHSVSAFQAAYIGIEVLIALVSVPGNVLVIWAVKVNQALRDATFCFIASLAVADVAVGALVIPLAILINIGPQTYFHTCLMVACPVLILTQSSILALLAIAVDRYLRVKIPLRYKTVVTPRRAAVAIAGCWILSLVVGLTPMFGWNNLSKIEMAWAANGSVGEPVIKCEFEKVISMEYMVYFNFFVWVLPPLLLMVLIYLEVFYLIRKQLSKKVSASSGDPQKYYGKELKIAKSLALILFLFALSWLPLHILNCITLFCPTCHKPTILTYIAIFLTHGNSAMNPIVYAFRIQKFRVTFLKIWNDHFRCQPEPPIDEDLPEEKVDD

[2] = molecular target: T1, Adenosine receptor A1; assay: Binding affinity against adenosine A1 receptor using [3H]CPX in guinea pig DDT membrane
[3] = molecular target: T1, Adenosine receptor A1; assay: Binding affinity against adenosine A1 receptor using [3H]CPX in guinea pig DDT membrane; 1571+/-245
[4] = molecular target: T1, Adenosine receptor A1; assay: Binding affinity against adenosine A1 receptor using [3H]CPX in guinea pig DDT membrane; 354+/-113
[5] = molecular target: T1, Adenosine receptor A1; assay: Binding affinity against adenosine A1 receptor using [3H]CPX in guinea pig DDT membrane; 5855+/-1208
[6] = molecular target: T1, Adenosine receptor A1; assay: Binding affinity against adenosine A1 receptor using [3H]CPX in guinea pig DDT membrane; 7292+/-3241
[7] = molecular target: T1, Adenosine receptor A1; assay: Binding affinity against adenosine A1 receptor using [3H]CPX in guinea pig DDT membrane; 1945+/-1316
[8] = molecular target: T1, Adenosine receptor A1; assay: Binding affinity against adenosine A1 receptor using [3H]CPX in guinea pig DDT membrane; 343+/-137
[9] = molecular target: T1, Adenosine receptor A1; assay: Binding affinity against adenosine A1 receptor using [3H]CPX in guinea pig DDT membrane; 913+/-517
[10] = molecular target: T1, Adenosine receptor A1; assay: Binding affinity against adenosine A1 receptor using [3H]CPX in guinea pig DDT membrane; 503+/-262
[11] = molecular target: T1, Adenosine receptor A1; assay: Binding affinity against adenosine A1 receptor using [3H]CPX in guinea pig DDT membrane; 158+/-21
[12] = molecular target: T1, Adenosine receptor A1; assay: Binding affinity against adenosine A1 receptor using [3H]CPX in guinea pig DDT membrane; 1143+/-426
[13] = molecular target: T1, Adenosine receptor A1; assay: Binding affinity against adenosine A1 receptor using [3H]CPX in guinea pig DDT membrane; 1666+/-556
[14] = molecular target: T1, Adenosine receptor A1; assay: Binding affinity against adenosine A1 receptor using [3H]CPX in guinea pig DDT membrane; 894+/-659
[15] = molecular target: T1, Adenosine receptor A1; assay: Binding affinity against adenosine A1 receptor using [3H]CPX in guinea pig DDT membrane; 604+/-241
[16] = molecular target: T1, Adenosine receptor A1; assay: Binding affinity against adenosine A1 receptor using [3H]CPX in guinea pig DDT membrane; 400+/-38
[17] = molecular target: T1, Adenosine receptor A1; assay: Binding affinity against adenosine A1 receptor using [3H]CPX in guinea pig DDT membrane; 338+/-98
[18] = molecular target: T1, Adenosine receptor A1; assay: Binding affinity against adenosine A1 receptor using [3H]CPX in guinea pig DDT membrane; 6250+/-1767
[19] = molecular target: T1, Adenosine receptor A1; assay: Binding affinity against adenosine A1 receptor using [3H]CPX in guinea pig DDT membrane; 614+/-78
[20] = molecular target: T1, Adenosine receptor A1; assay: Binding affinity against adenosine A1 receptor using [3H]CPX in guinea pig DDT membrane; 117+/-46
[21] = molecular target: T1, Adenosine receptor A1; assay: Binding affinity against adenosine A1 receptor using [3H]-CPX in guinea pig DDT membrane; 4191+/-922
[22] = molecular target: T1, Adenosine receptor A1; assay: Binding affinity against adenosine A1 receptor using [3H]CPX in guinea pig DDT membrane; 473+/-329
[23] = molecular target: T1, Adenosine receptor A1; assay: Binding affinity against adenosine A1 receptor using [3H]CPX in guinea pig DDT membrane; 166+/-75
[24] = molecular target: T1, Adenosine receptor A1; assay: Binding affinity against adenosine A1 receptor using [3H]CPX in guinea pig DDT membrane; 287+/-125
[25] = molecular target: T1, Adenosine receptor A1; assay: Binding affinity against adenosine A1 receptor using [3H]CPX in guinea pig DDT membrane; 1773+/-209
[26] = molecular target: T1, Adenosine receptor A1; assay: Binding affinity against adenosine A1 receptor using [3H]CPX in guinea pig DDT membrane; 506+/-111

O[C@@H]1[C@H](O)[C@@H](CSc2ccc(F)cc2F)O[C@H]1n1cnc2c(NC3CCOC3)ncnc21 (stereo partly specified)
Ki [1]: 5500 nM | Ki [2]: 494 nM

Cc1csc(SC[C@H]2OC(n3cnc4c(NC5CCOC5)ncnc43)[C@H](O)[C@@H]2O)n1 (stereo partly specified)
Ki [2]: > 5000 nM

O[C@@H]1[C@@H](CSc2cccc(F)c2)OC(n2cnc3c(NC4CCOC4)ncnc32)[C@@H]1O (stereo partly specified)
Ki [3]: 1570 nM

COc1ccc2sc(SC[C@H]3OC(n4cnc5c(NC6CCCC6)ncnc54)[C@H](O)[C@@H]3O)nc2c1 (stereo partly specified)
Ki [4]: 354 nM

O[C@@H]1[C@@H](COCc2ccccc2)OC(n2cnc3c(NC4CCOC4)ncnc32)[C@@H]1O (stereo partly specified)
Ki [2]: 165 nM

Cc1cccc(C)c1SC[C@H]1OC(n2cnc3c(NC4CCOC4)ncnc32)[C@H](O)[C@@H]1O (stereo partly specified)
Ki [5]: 5850 nM

Cc1cccc(Cl)c1SC[C@H]1OC(n2cnc3c(NC4CCOC4)ncnc32)[C@H](O)[C@@H]1O (stereo partly specified)
Ki [6]: 7290 nM

O[C@@H]1[C@@H](CSc2nc3ccc(Cl)cc3o2)OC(n2cnc3c(NC4CCOC4)ncnc32)[C@@H]1O (stereo partly specified)
Ki [7]: 1940 nM

O[C@@H]1[C@@H](COc2ccc(F)cc2)OC(n2cnc3c(NC4CCOC4)ncnc32)[C@@H]1O (stereo partly specified)
Ki [8]: 343 nM

O[C@@H]1[C@@H](COc2ccccc2F)OC(n2cnc3c(NC4CCCC4)ncnc32)[C@@H]1O (stereo partly specified)
Ki [2]: 4390 nM

O[C@@H]1[C@@H](CSc2ncccn2)OC(n2cnc3c(NC4CCOC4)ncnc32)[C@@H]1O (stereo partly specified)
Ki [9]: 913 nM

Cc1ccccc1OC[C@H]1OC(n2cnc3c(NC4CCOC4)ncnc32)[C@H](O)[C@@H]1O (stereo partly specified)
Ki [10]: 503 nM

O[C@@H]1[C@@H](CSc2nccs2)OC(n2cnc3c(NC4CCOC4)ncnc32)[C@@H]1O (stereo partly specified)
Ki [11]: 158 nM

Cc1ccccc1SC[C@H]1OC(n2cnc3c(NC4CCOC4)ncnc32)[C@H](O)[C@@H]1O (stereo partly specified)
Ki [12]: 1140 nM

COc1ccc2nc(SC[C@H]3OC(n4cnc5c(NC6CCCC6)ncnc54)[C@H](O)[C@@H]3O)sc2c1 (stereo partly specified)
Ki [13]: 1670 nM

O[C@@H]1[C@@H](CSc2ccccn2)OC(n2cnc3c(NC4CCOC4)ncnc32)[C@@H]1O (stereo partly specified)
Ki [14]: 894 nM

O[C@@H]1[C@@H](COc2cccc(F)c2)OC(n2cnc3c(NC4CCOC4)ncnc32)[C@@H]1O (stereo partly specified)
Ki [15]: 604 nM

O[C@@H]1[C@@H](CSc2nc3ccccc3s2)OC(n2cnc3c(NC4CCOC4)ncnc32)[C@@H]1O (stereo partly specified)
Ki [16]: 400 nM

O[C@@H]1[C@@H](CSc2ccccc2Cl)OC(n2cnc3c(NC4CCOC4)ncnc32)[C@@H]1O (stereo partly specified)
Ki [17]: 338 nM

Cc1cc(COC[C@H]2OC(n3cnc4c(NC5CCOC5)ncnc43)[C@H](O)[C@@H]2O)no1 (stereo partly specified)
Ki [2]: 192 nM

O[C@@H]1[C@@H](CSc2ccccc2C(F)(F)F)OC(n2cnc3c(NC4CCOC4)ncnc32)[C@@H]1O (stereo partly specified)
Ki [18]: 6250 nM

O[C@@H]1[C@@H](CSc2c(Cl)cccc2Cl)OC(n2cnc3c(NC4CCOC4)ncnc32)[C@@H]1O (stereo partly specified)
Ki [19]: 614 nM

O[C@@H]1[C@@H](COc2ccccc2F)OC(n2cnc3c(NC4CCOC4)ncnc32)[C@@H]1O (stereo partly specified)
Ki [20]: 117 nM

Cn1ccnc1SC[C@H]1OC(n2cnc3c(NC4CCOC4)ncnc32)[C@H](O)[C@@H]1O (stereo partly specified)
Ki [21]: 4190 nM

O[C@@H]1[C@@H](COc2ccccc2Cl)OC(n2cnc3c(NC4CCOC4)ncnc32)[C@@H]1O (stereo partly specified)
Ki [22]: 473 nM

O[C@@H]1[C@@H](CSc2nccs2)OC(n2cnc3c(NC4CCCC4)ncnc32)[C@@H]1O (stereo partly specified)
Ki [23]: 166 nM

O[C@@H]1[C@@H](CSc2ccccc2F)OC(n2cnc3c(NC4CCCC4)ncnc32)[C@@H]1O (stereo partly specified)
Ki [24]: 287 nM

O[C@@H]1[C@@H](CSc2nc3ccccc3s2)OC(n2cnc3c(NC4CCCC4)ncnc32)[C@@H]1O (stereo partly specified)
Ki [25]: 1770 nM

O[C@@H]1[C@H](O)[C@@H](CSc2ccccc2F)O[C@H]1n1cnc2c(NC3CCOC3)ncnc21 (stereo partly drawn) [N6-Tetrahydrofuranyl-9H-[5-deoxy-5-(2-fluorophenylthio)-beta-D-ribofuranosyl]adenine]
Ki [26]: 506 nM

Cn1ccnc1SC[C@H]1OC(n2cnc3c(NC4CCCC4)ncnc32)[C@H](O)[C@@H]1O (stereo partly specified)
Ki [2]: 1340 nM
